The subject of series [1] is mitochondrial membrane potential in U-2 OS osteosarcoma cells. As to the kind of experiment: MMP assay (high-content screening, TMRM). To be noted: 16 h; for mitochondrial membrane potential (MMP), % of the control value: highest assay concentration (10 µg/mL), TMRM; for reduction of the MMP: at concentrations as low as 5 µg/mL; for effect on MMP in the tested concentration range: 1 to 10 µg/mL. The series is classed as cell-based, human. Here is the method:
Since aurachins are described as electron-transport inhibitors of the mitochondrial respiratory chain (complex I and III), we analyzed the synthetic analogues in high-content screening experiments with respect to a decrease of the mitochondrial membrane potential (MMP). Human U-2 OS osteosarcoma cells were treated for 16 hours with aurachins 4, 9–11, and 17–19 at concentrations between 1 and 10 µg/mL, and mitochondria were labeled with tetramethylrhodamine methyl ester (TMRM) in order to assess changes in MMP (Figure 2). Most prominent concentration-dependent effects were determined for aurachin D (4) and one of its analogues (17). […] This might be due to differential effects on different cell lines, a different time course of electron-transport inhibition, or a different mode of inducing apoptosis (e.g., via enhanced ROS formation). However, at the highest assay concentration also shorter chain analogues 9–11 reduced the MMP to approximately 60–80% of the control value as exemplarily shown for geranyl analogue 9 (Figure 2B).
Figure 2 (A) Loss of mitochondrial membrane potential in human U-2 OS osteosarcoma cells that were treated with aurachin D (4) and analogue 17. Images were acquired on a BD Pathway855 automated microscope and subsequently processed in AttoVision v1.6.2. The relative MMP was calculated based on TMRM fluorescence intensity in the cytoplasmic segments. The value of the negative control (untreated cells) was set to 100% and the value of FCCP-treated cells (positive control) was set to 0%. Bars represent the mean ±SEM of all cellular segments within a well. (B) Representative HCS images of U-2 OS cells that were treated with aurachin D (4) or the geranyl analogue 9. Cells were labeled with TMRM and imaged in the rhodamine channel at 200× magnification. […]
MMP assay: Human U-2 OS osteosarcoma cells (HTB-96) were obtained from the American Type Culture Collection (ATCC) and were cultured under the conditions recommended by the depositor. Cells from actively growing cultures were harvested and seeded at 8 × 10^3 cells per well in 96-well imaging plates (BD Falcon). After 1 d cells reached approximately 60% confluency and were treated with aurachin analogues at the assigned concentrations for 16 h. In addition, cells were stimulated with 1 µM FCCP [carbonyl cyanide 4-(trifluoromethoxy)phenylhydrazone] as a positive control 1 h prior to the measurement. For labeling, cells were washed twice with assay buffer ([…], 5.4 mM KCl, 2 mM MgCl2, 10 mM glucose, 2 mM CaCl2, 10 mM HEPES; pH 7.35) and 100 µL of a staining solution (50 nM TMRM, […]
5 µg/mL Hoechst33342 in assay buffer) was added. The cells were stained for 30 min at 37 °C and after washing with assay buffer the samples were examined on an automated microscope (BD Pathway855) in 200-fold magnification with appropriate filter sets for rhodamine and Hoechst. For image analysis, a dual mask (Cyto-Nuc-Ring) was applied in AttoVision v1.6.2. Presented rhodamine fluorescence intensity values were generated in the cytoplasmic segment (ring around nuclei) on a single cell basis and averaged over the complete sample (well).
(§1) In vitro antiplasmodial assays: The chloroquine-resistant strain FcB1/Colombia of Plasmodium falciparum was maintained in vitro on human erythrocytes in RPMI 1640 medium supplemented by 8% (v/v) heat-inactivated human serum, at 37 °C, under an atmosphere of 3% CO2, 6% O2, and 91% N2. In vitro drug susceptibility assays was measured by [3H]-hypoxanthine incorporation as described. Drugs were prepared in DMSO at a 10 mg/mL concentration. Compounds were serially diluted two-fold with 100 µL culture medium in 96-well plates. Asynchronous parasite cultures (100 µL, 1% parasitaemia and 1% final hematocrite) were then added to each well and incubated for 24 h at 37 °C prior to the addition of 0.5 µCi of [3H]- hypoxanthine (GE Healthcare, France, 1 to 5 Ci·mmol/mL) per well. After a further incubation of 24 h, plates were frozen and thawed. […]

In series [2] the test system is HCT-116 human colon carcinoma cells. The series is described as follows: Cytotoxicity, growth inhibition (MTT). The class given is cell-based. The conditions noted are these: Homo sapiens, HCT-116, 120 h, read-out: IC50: half inhibitory concentration, HCT-116. Here is the method:
(§2) The cytotoxic activity of aurachin D (4) and analogues 9–11 and 17–19 was evaluated in growth inhibition experiments on mammalian cell lines (Table 2). After 5 days treatment, half inhibitory concentrations (IC50) were determined for human HCT-116 colon carcinoma and human K562 myelogenous leukemia cells. […]
(§3) was further incubated for 1.5 h. The medium was then discarded and 100 µL 2-propanol/10 N HCl (250:1) was added in order to dissolve formazan granules. The absorbance at 570 nm was measured using a microplate reader (EL808, Bio-Tek Instruments Inc.) and cell viability was expressed as a percentage relative to the respective solvent control. […]

In series [3] the test system is K562 myelogenous leukemia cells. As to the kind of experiment: Cytotoxicity, growth inhibition (MTT). The series is classed as cell-based. To be noted: Homo sapiens, K562, 120 h; 5 days treatment; triplicate, mean ±SD; read-out: IC50: half inhibitory concentration, K562. Here is the method: as §2, §3
The test system of series [4] is Plasmodium falciparum FcB1 (chloroquine-resistant). As to the kind of experiment: In vitro antiplasmodial assay ([3H]-hypoxanthine incorporation). The series is classed as cell-based. To be noted: for IC50: Plasmodium falciparum, FCB1, triplicate (except compound 24), mean ±SD, read-out: IC50 P. falciparum FcB1; for antiplasmodial selectivity index: Vero cytotoxic concentration / concentration active on P. falciparum FcB1. Here is the method:
as §1, with “thawed. Cell lysates were then collected onto glass-fiber filters and counted in a liquid scintillation spectrometer. The growth inhibition for each drug concentration was determined by comparison of the radioactivity incorporated in the treated culture with that in the control culture maintained on the same plate. The concentration causing 50% growth inhibition (IC50) was obtained from the drug concentration–response curve and the results were expressed as the mean values ± standard deviations determined from several” for “thawed.”
independent experiments. Chloroquine diphosphate (Sigma–Aldrich) was used as antimalarial drug control. […]

Converted amounts (≈) assume the structure as drawn.

Broadly, the melting point is the temperature, or range, at which the solid turns liquid. Regarding `CC(C)=CCC/C(C)=C/Cc1c(C)[nH]c2ccccc2c1=O` [compound 9], the melting point is 187 to 189 °C. The “mitochondrial membrane potential (MMP), % of the control value” in series [1] is 60–80%. For the same molecule, the IC50 in series [2] came out at 2.52 ± 0.48 µg/mL (≈ 8.53 µM). Also, the IC50 in series [3] stood at 1.5 ± 0.31 µg/mL (≈ 5.08 µM). In series [4], the IC50 turned out to be 0.07 ± 0.02 µg/mL (≈ 0.237 µM) and the antiplasmodial selectivity index was 345.

As to `CC(C)=CCC/C(C)=C/CC/C(C)=C/Cc1c(C)[nH]c2ccccc2c1=O` [compound 4, aurachin D], in series [1], the “reduction of the MMP” value is recorded as “significantly reduced the MMP” and the “mitochondrial membrane potential (MMP), % of the control value” is recorded as “approximately 50%”. In addition, in series [2], the IC50 turned out to be 2.23 ± 0.76 µg/mL (≈ 6.13 µM). Besides, the IC50 in series [3] came to 0.65 ± 0.16 µg/mL (≈ 1.79 µM). Besides, in series [4], the IC50 came out at 0.04 ± 0.02 µg/mL (≈ 0.11 µM) and the antiplasmodial selectivity index is listed as 345.

Take `COc1ccc2[nH]c(C)c(CC=C(C)CCC=C(C)CCC=C(C)C)c(=O)c2c1` [compound 18]: the “effect on MMP in the tested concentration range” value (“effect on MMP” for short) in series [1] is “essentially inactive”. The IC50 in series [2] worked out at 1.64 ± 0.47 µg/mL (≈ 4.17 µM); in series [3], 1.15 ± 0.22 µg/mL (≈ 2.92 µM); in series [4] it was 0.2 ± 0.04 µg/mL (≈ 0.508 µM).

As for `CC(C)=CCCC(C)=CCCC(C)=CCc1c(C)[nH]c2cc3c(cc2c1=O)OCO3` [compound 19], the melting point was 298 to 300 °C (dec.). In series [1], the “effect on MMP” value is “essentially inactive”. Besides, in series [2], the IC50 was > 10 µg/mL. Moreover, the IC50 in series [3] was > 10 µg/mL. For the same molecule, the IC50 in series [4] stood at 0.42 ± 0.09 µg/mL (≈ 1.03 µM).

In the case of `CC(C)=CCCC(C)=CCCC(C)=CCc1c(C)[nH]c2ccc3ccccc3c2c1=O` [compound 17], the “effect on MMP” value in series [1] was “strongly diminished the MMP”. The “reduction of the MMP” value in series [1] is listed as “significantly reduced the MMP”. Also, the IC50 in series [2] is > 10 µg/mL; in series [3], ~10 µg/mL (≈ 24.2 µM); in series [4], 0.51 ± 0.18 µg/mL (≈ 1.23 µM).

Values taken from PMC3740496, “Synthesis and biological activities of the respiratory chain inhibitor aurachin D and new ring versus chain analogues” (Beilstein Journal of Organic Chemistry, 2013).
